Test results reported in patent US9340493B2, “Hydroxamic acid derivatives useful as antibacterial agents” (Pfizer Inc., priority 2008, dated 2016).
Converted amounts (≈) assume the structure as drawn.

Tests used:
[1] = test system: Escherichia coli EC-1; assay: MIC determination, E. coli EC-1; assay type: cell-based; conditions: EC1, EC-1: VOGEL, * = arithmetic mean of 2-6 MIC determinations, read-out: MIC (ug/mL) E. coli EC-1
Protocol: (§1) MIC determinations: The in vitro antibacterial activity of compounds described in the Examples was evaluated by minimum inhibitory concentration (MIC) testing according to Clinical and Laboratory Standards Institute (CLSI, formerly NCCLS) guidelines. See: Clinical and Laboratory Standards Institute. Methods for Dilution Antimicrobial Susceptibility Tests for Bacteria that Grow Aerobically; Approved Standard-Seventh Edition. CLSI document M7-A7 [ISBN 1-56238-587-9]. Clinical and Laboratory Standards Institute, 940 West Valley Road, Suite 1400, Wayne, Pa. 19087-1898 USA, 2006; also Clinical and Laboratory Standards Institute. Performance Standards for Antimicrobial Susceptibility Testing; Eighteenth Informational Supplement. CLSI document M100-S18 [ISBN1-56238-653-0]. Clinical and Laboratory Standards Institute.
(§2) The following bacterial strains were used:
Escherichia coli EC-1: VOGEL;

[2] = biological target: T1, Pseudomonas aeruginosa LpxC enzyme (Pseudomonas aeruginosa, UniProt P47205); assay: IC50 assay, LpxC enzyme from P. aeruginosa; assay type: biochemical; conditions: 0.5 nM enzyme, 25° C., pH 8.0, 20 min; ** = average of 2-8 assays
T1 construct: made in house; host or cells: E. coli
T1 sequence (P47205 1-303): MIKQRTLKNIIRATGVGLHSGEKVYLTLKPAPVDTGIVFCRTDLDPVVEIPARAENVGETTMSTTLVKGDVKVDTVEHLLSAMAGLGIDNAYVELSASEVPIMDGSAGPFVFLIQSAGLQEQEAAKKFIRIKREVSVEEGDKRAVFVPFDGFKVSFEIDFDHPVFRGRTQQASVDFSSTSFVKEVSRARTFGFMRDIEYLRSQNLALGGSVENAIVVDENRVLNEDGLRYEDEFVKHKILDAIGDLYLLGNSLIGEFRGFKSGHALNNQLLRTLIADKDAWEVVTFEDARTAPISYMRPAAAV
Protocol: IC50 assay, LpxC enzyme from P. aeruginosa: IC50 determination in the LpxC enzyme assay was carried out in a similar manner to that described by S. A. Hyland et al., J. Bacteriology 1997, 179, 2029-2037. [See also T. Kline et al., J. Medicinal Chemistry 2002, 45, 3112-3129.] Briefly, Pseudomonas aeruginosa LpxC enzyme (0.5 nM) purified from E. coli-overexpressing bacteria was incubated at 25° C. in a final volume of 25 ul containing 0.5 uM UDP-3-O—(R-3-hydroxydecanoyl)-N—[^3H-acetyl]glucosamine (B. D. Maxwell and J. C. Bronstein, J. Labeled Compounds and Radiopharmaceuticals 2005, 48, 1049-1054), 1 mg/ml BSA, and 50 mM sodium phosphate buffer, pH 8.0 in the presence and absence of inhibitor compound. At the end of 20 min, 90 ul of a pre-mixed 3% suspension of activated charcoal in 100 mM sodium acetate, pH 7.5, was added to stop the enzyme reaction. The contents of the well were transferred to a filter plate and filtered, and an aliquot of the filtrate was quantitated by liquid scintillation spectrometry. A no-enzyme control was subtracted in order to eliminate background counts.

[3] = test system: Enterobacter aerogenes; assay: MIC determination, E. aerogenes; assay type: cell-based; conditions: Klebsiella aerogenes; quinolone-resistant, ESBL-expressing clinical isolate; * = arithmetic mean of 2-6 MIC determinations; read-out: MIC (ug/mL) E. aerogenes
Protocol: as §1, §2
Enterobacter aerogenes: Quinolone-resistant isolate, expresses extended-spectrum beta-lactamases (ESBL), clinical isolate;

[4] = test system: Klebsiella pneumoniae; assay: MIC determination, K. pneumoniae; assay type: cell-based; conditions: ciprofloxacin-resistant, ESBL-expressing clinical isolate, * = arithmetic mean of 2-6 MIC determinations, read-out: MIC (ug/mL) K. pneumoniae
Protocol: as §1, §2
Klebsiella pneumoniae: Ciprofloxacin-resistant isolate, expresses extended-spectrum beta-lactamases (ESBL), clinical isolate;

[5] = test system: Staphylococcus aureus ATCC 29213; assay: MIC determination, S. aureus ATCC 29213; assay type: cell-based; conditions: ATCC29213, CLSI quality control reference strain, * = arithmetic mean of 2-6 MIC determinations, read-out: MIC (ug/mL) S. aureus ATCC 29213
Protocol: as §1, §2
Staphylococcus aureus ATCC 29213: CLSI quality control reference strain; and […]

[6] = test system: Acinetobacter baumanii/haemolyticus; assay: MIC determination, A. baumanii/haemolyticus; assay type: cell-based; conditions: Acinetobacter baumannii; multidrug-resistant clinical isolate; * = arithmetic mean of 2-6 MIC determinations; read-out: MIC (ug/mL) A. baumanii/haemolyticus
Protocol: as §1, §2
Acinetobacter baumanii/haemolyticus: Multidrug-resistant clinical isolate;

[7] = test system: P. aeruginosa PAO280; assay: MIC determination, P. aeruginosa PAO280; assay type: cell-based; conditions: Pseudomonas aeruginosa, PAO280, read-out: MIC (ug/mL) P. aeruginosa PAO280
Protocol: as §1, §2
Pseudomonas aeruginosa PA0280: lacks efflux pumps MexAB-oprM, MexXY and MexZ

[8] = test system: P. aeruginosa UI-18; assay: MIC determination, P. aeruginosa UI-18; assay type: cell-based; conditions: Pseudomonas aeruginosa, UI18; wild-type; * = arithmetic mean of 2-6 MIC determinations; read-out: MIC (ug/mL) P. aeruginosa UI-18
Protocol: as §1, §2
P. aeruginosa UI-18: Wild-type;

Structure (SMILES) | MIC [1] | IC50 [2] | MIC [3] | MIC [4] | MIC [5] | MIC [6] | MIC [7] | MIC [8]
C[C@@](OCc1ccc(-c2ccc(C(F)(F)F)cc2)cc1)(C(=O)NO)[C@@H](O)c1cc(CO)on1 [Example 42, (2S,3S)-N,3-dihydroxy-3-[5-(hydroxymethyl)isoxazol-3-yl]-2-methyl-2-{[4′-(trifluoromethyl)biphenyl-4-yl]methoxy}propanamide] | 16 µg/mL (≈ 34.3 µM) | 0.000372 µM | > 32 µg/mL | > 32 µg/mL | > 32 µg/mL | 32 µg/mL (≈ 68.6 µM) | < 0.06 µg/mL | 2 µg/mL (≈ 4.29 µM)
Cc1ccc(-c2ccc(CO[C@](C)(C(=O)NO)[C@@H](O)c3cc(CO)on3)cc2)cc1 [Example 37, (2S,3S)-N,3-dihydroxy-3-[5-(hydroxymethyl)isoxazol-3-yl]-2-methyl-2-[(4′-methylbiphenyl-4-yl)methoxy]propanamide] | 8 µg/mL (≈ 19.4 µM) | 0.000476 µM | 64 µg/mL (≈ 155 µM) | 16 µg/mL (≈ 38.8 µM) | > 64 µg/mL | 64 µg/mL (≈ 155 µM) | 0.015 µg/mL (≈ 0.0364 µM) | 0.75 µg/mL (≈ 1.82 µM)
C[C@@](OCc1ccc(-c2ccccc2)cc1)(C(=O)NO)[C@@H](O)c1nccs1 [Example 20, (2S,3R)-2-(biphenyl-4-ylmethoxy)-N,3-dihydroxy-2-methyl-3-(1,3-thiazol-2-yl)propanamide] | > 64 µg/mL | 0.000726 µM | > 64 µg/mL | > 64 µg/mL | > 64 µg/mL | > 64 µg/mL | 1 µg/mL (≈ 2.6 µM) | 16 µg/mL (≈ 41.6 µM)
C[C@@](OCc1ccc(-c2ccc(C(F)(F)F)cn2)cc1)(C(=O)NO)[C@@H](O)c1cc(CO)on1 [Example 41, (2S,3S)-N,3-dihydroxy-3-[5-(hydroxymethyl)isoxazol-3-yl]-2-methyl-2-({4-[5-(trifluoromethyl)pyridin-2-yl]benzyl}oxy)propanamide] | > 64 µg/mL | 0.00116 µM | > 64 µg/mL | > 64 µg/mL | > 64 µg/mL | > 64 µg/mL | 0.25 µg/mL (≈ 0.535 µM) | 32 µg/mL (≈ 68.5 µM)
CC(OCc1ccc(-c2ccccc2)cc1)(C(=O)NO)C1(O)CCC1 (stereo not drawn) [Example 48, 2-(biphenyl-4-ylmethoxy)-N-hydroxy-2-(1-hydroxycyclobutyl)propanamide] | > 64 µg/mL | 0.00623 µM | > 64 µg/mL | > 64 µg/mL | > 64 µg/mL | > 64 µg/mL | < 0.06 µg/mL | 16 µg/mL (≈ 46.9 µM)
COCc1ccc([C@H](O)[C@](C)(OCc2ccc(-c3ccccc3)cc2)C(=O)NO)o1 [Example 24, (2S,3S)-2-(biphenyl-4-ylmethoxy)-N,3-dihydroxy-3-[5-(methoxymethyl)-2-furyl]-2-methylpropanamide] | > 64 µg/mL | 0.00128 µM | > 64 µg/mL | > 64 µg/mL | > 64 µg/mL | > 64 µg/mL | 2 µg/mL (≈ 4.86 µM) | 32 µg/mL (≈ 77.8 µM)
C[C@@](OCc1ccc(-c2ccccc2)cc1)(C(=O)NO)[C@@H](O)c1ccn[nH]1 [Example 45, (2S,3S)-2-(biphenyl-4-ylmethoxy)-N,3-dihydroxy-2-methyl-3-(1H-pyrazol-3-yl)propanamide] | > 32 µg/mL | 0.00195 µM | > 32 µg/mL | > 32 µg/mL | > 32 µg/mL | > 32 µg/mL | 0.25 µg/mL (≈ 0.68 µM) | 16 µg/mL (≈ 43.5 µM)
C[C@@](OCc1ccc(-c2ccccc2)cc1)(C(=O)NO)[C@@H](O)c1cc(-c2ccccc2)on1 [Example 28, (2S,3S)-2-(biphenyl-4-ylmethoxy)-N,3-dihydroxy-2-methyl-3-(5-phenylisoxazol-3-yl)propanamide] | 8 µg/mL (≈ 18 µM) | 0.00143 µM | > 16 µg/mL | > 16 µg/mL | 16 µg/mL (≈ 36 µM) | 8 µg/mL (≈ 18 µM) | 4 µg/mL (≈ 9 µM) | 8 µg/mL (≈ 18 µM)
Cc1cccnc1CCNC(=O)C(C)(OCc1ccc(-c2ccccc2)cc1)C(=O)NO (stereo not drawn) [Example 70, 2-(biphenyl-4-ylmethoxy)-N-hydroxy-2-methyl-N′-[2-(3-methylpyridin-2-yl)ethyl]malonamide] | 16 µg/mL (≈ 36.9 µM) | 0.00804 µM | > 64 µg/mL | > 64 µg/mL | > 64 µg/mL | 32 µg/mL (≈ 73.8 µM) | 1 µg/mL (≈ 2.31 µM) | 32 µg/mL (≈ 73.8 µM)
Cc1cc(CNC(=O)C(C)(OCc2ccc(-c3ccc(F)cn3)cc2)C(=O)NO)no1 (stereo not drawn) [Example 88, 2-{[4-(5-fluoropyridin-2-yl)benzyl]oxy}-N-hydroxy-2-methyl-N′-[(5-methylisoxazol-3-yl)methyl]malonamide] | > 64 µg/mL | 0.00698 µM | > 64 µg/mL | > 64 µg/mL | > 64 µg/mL | > 64 µg/mL | 0.5 µg/mL (≈ 1.17 µM) | 64 µg/mL (≈ 149 µM)
C[C@@](OCc1ccc(-c2ccccc2)cc1)(C(=O)NO)[C@@H](O)C1CC1 [Example 15, (2S,3S)-2-(biphenyl-4-ylmethoxy)-3-cyclopropyl-N,3-dihydroxy-2-methylpropanamide] | > 64 µg/mL | 0.0734 µM | > 64 µg/mL | > 64 µg/mL | > 64 µg/mL | > 64 µg/mL | 32 µg/mL (≈ 93.7 µM) | > 64 µg/mL
C[C@@](OCc1ccc(-c2ccc(F)cc2)cc1)(C(=O)NO)[C@@H](O)c1cc(CO)on1 [Example 35, (2S,3S)-2-[(4′-fluorobiphenyl-4-yl)methoxy]-N,3-dihydroxy-3-[5-(hydroxymethyl)isoxazol-3-yl]-2-methylpropanamide] | 23 µg/mL (≈ 55.2 µM) | 0.000695 µM | > 64 µg/mL | 53 µg/mL (≈ 127 µM) | > 64 µg/mL | 64 µg/mL (≈ 154 µM) | 0.03 µg/mL (≈ 0.072 µM) | 1 µg/mL (≈ 2.4 µM)
